Test results taken from patent US20230338369A1, “COMBINATION OF A PROTEASOME INHIBITOR AND A HDAC INHIBITOR AND ITS USE FOR THE TREATMENT OF GENETIC DISEASES LINKED TO A PROTEIN CONFORMATIONAL DISORDER” (Centre d'Etude des Cellules Souches (CECS), priority 2019, published 2023).
Read-outs that look alike come from different tables or passages of the source. Peptide text beside a SMILES is read from it. * marks the point of attachment. Cbz = O=C(OCc1ccccc1)*

Columns and labels:
[1] = target: T1, chymotrypsin-like activity of the proteasome (Homo sapiens, UniProt P28074); assay: Proteasomal activity assay (Proteasome-Glo chymotrypsin-like cell-based assay); details: for chymotrypsin-like activity of the proteasome: increasing concentrations
T1 construct: endogenous in cells; host or cells: immortalized patient fibroblasts overexpressing R77C-α-SGmCh
Description: Fibroblasts were seeded in 384 well plates and treated with tested combinations as indicated for 12 hours. Proteasome-Glo™ or chymotrypsin-like cell-based assay reagents were added according to manufacturer instructions (Promega). Luminescence was read using a CLARIOstar® microplate reader (BMG Labtech).

[2] = system: ubiquitinated proteins, P62, LC3BI/II, acetylated α-tubulin, α-SG; assay: Immunoblotting of fibroblasts overexpressing R77C-α-SGmCh; assay type: cell-based, human; details: 24 hours; for ubiquitinated proteins (Western blot): 10 μM in combination with 5 nM BTZ
Description: (B) Western Blot analysis of ubiquitinated proteins (top panel), P62 and LC3BI/II (middle panel) and acetylated α-tubulin (bottom panel) expression in fibroblasts overexpressing R77C-α-SGmCh and treated with DMSO 0.1%, BTZ (5 nM or 30 nM), or givinostat (10 μM) in presence or in absence of 5 nM BTZ for 24 hours.
(D) Western Blot analysis of ubiquitinated proteins (middle panel), α-SG (top panel) and acetylated α-tubulin (bottom panel) expression in fibroblasts overexpressing R77C-α-SGmCh and treated with DMSO 0.1%, BTZ (5 nM or 30 nM), or tubacin (10 μM) in presence or in absence of 5 nM BTZ for 24 hours.
Twenty-four hours after seeding, the immortalized fibroblasts expressing R77C-α-SGmCh were incubated with the tested compounds or the carrier. Cells were collected after 24 hours of treatment. Proteins were extracted by cell lysis buffer (NP40 Buffer, Thermo Scientific) and Proteases Inhibitors (Complete PIC, Roche). Proteins were separated using a 3-8% Criterion™ XT tris-acetate protein gel and then transferred to PVDF membrane with a Trans-Blot Turbo Transfert system (Biorad) using the 7 min/25V program. Detection of proteins was performed using standard Odyssey protocol by incubation with the following antibodies: • Ubiquitinated proteins: Merck, 04-263; • acetylated α-tubulin: Sigma, T6793; • P62: Abcam, ab56416; • LC3BI/II: Novus, NB600-1384.

R77C-α-SGmCh = assay: SG localization cell-based assay: membrane rescue of R77C-α-SGmCh in immortalized LGMD-R3 patient fibroblasts; design: species or system human; details: for EC50: read-out: EC50, presence of R77C-α-SGmCh at the membrane; for effect on R77C-α-SGmCh mutant protein rescue in combination with givinostat: low doses: carfilzomib 10 nM, MG132 100 nM, increasing concentrations of givinostat
Description: Cells were analyzed after 24 hours of treatment.
In order to easily evaluate the membrane localization of the R77C-α-SG mutant in the heterologous condition, a system was generated that allowed the simultaneous identification of the positive cells for the exogenous protein and the quantification of the amount of protein in the cell membrane. A fusion protein was created, consisting of the coding sequence for human R77C-α-SGfused with an mCherry (mCh) fluorescent reporter at the C-terminus. A flexible linker was inserted between the two coding sequences to avoid protein interference in protein maturation and folding. The construct, hereafter termed R77C-α-SGmCh, was placed under the transcriptional control of the cytomegalovirus (CMV) promoter and inserted into a lentivirus backbone. Immortalized fibroblasts from a LGMD-R3 patient were used as cellular model because of their absence of endogenous α-SG.

[3] = system: fibroblasts overexpressing R77C-α-SGmCh; assay: Viability test: count of Hoechst stained cells per field; details: increasing concentrations alone or in combination with 5 nM BTZ
Description: For overexpression of mutated α-SG and γ-SG, immortalized fibroblasts were transduced with a lentiviral vector expressing human R77C-α-SGmCh, C283Y-γ-SGmCh or E263K-γ-SGmCh with a multiplicity of infection (MOI) of 20 in the presence of 4 μg/ml of polybrene (Sigma-Aldrich). Cells were seeded on plates coated with 50 μg/ml of collagen I and maintained in a humidified atmosphere of 5% CO2 at 37-C. […] Cells were analyzed after 24 hours of treatment.
After 24 hours of drug treatment, cells were fixed in 4% paraformaldehyde (10 min, room temperature). Immunocytochemistry was performed in a phosphate-buffered saline (PBS) solution supplemented with 1% bovine serum albumin (BSA; Sigma) for blocking (1 hour, room temperature) and with a mouse anti-α-SG (NCL-L-a-SARC, Novocastra, Leica) or anti-γ-SG (NCL-L-g-SARC, Novocastra, Leica) for primary hybridization step (overnight, 4° C.). Cells were stained with a fluorophore-conjugated secondary anti-mouse antibody (Invitrogen; 1 hour, room temperature) and nuclei were visualized with Hoechst 33342 (Invitrogen). SG localization was analyzed with a CellInsight CX7 HCS Platform (Cellomics Inc). […] Pictures were acquired with a 10× objective in high-resolution camera mode and were analyzed using the colocalization bioapplication. The number of cells was monitored by counting Hoechst stained cells per field allowing quantification of the cell viability.

[4] = 10 μM with addition of 5 nM BTZ
[5] = combined treatment with 5 nM BTZ

With `CCN(CC)Cc1ccc2cc(COC(=O)Nc3ccc(C(=O)NO)cc3)ccc2c1` [givinostat, Givinostat] the “chymotrypsin-like activity of the proteasome” value [1] was “no proteasomal inhibition”, the “acetylation of α-tubulin (Western blot)” value ([2]; 10 μM alone or in combination with 5 nM BTZ) was “induces the acetylation of α-tubulin” and the “LC3B-I to LC3B-II conversion and P62 (Western blot)” value ([2]; 10 μM combined with 5 nM BTZ) was “increasing conversion of LC3B-I to LC3B-II with P62 accumulation”. For the same compound, the “ubiquitinated proteins (Western blot)” value [2] was “synergistic accumulation of ubiquitinated proteins”, the “R77C-α-SGmCh membrane rescue (α-SG staining)” value (shortened to “R77C-α-SGmCh membrane rescue”) (R77C-α-SGmCh; 10 μM alone) was “low effect” and the “R77C-α-SGmCh membrane rescue” value (R77C-α-SGmCh; [4]) was “diffuse α-SG staining suggesting a synergy with BTZ”. The EC50 (R77C-α-SGmCh; [5]) was 0.8 µM and the EC50 (R77C-α-SGmCh; treatment alone) was 3 µM.

In the case of `CC(C)C[C@H](NC(=O)[C@H](CCc1ccccc1)NC(=O)CN1CCOCC1)C(=O)N[C@@H](Cc1ccccc1)C(=O)N[C@@H](CC(C)C)C(=O)[C@@]1(C)CO1` [carfilzomib], the “effect on R77C-α-SGmCh mutant protein rescue in combination with givinostat” value (R77C-α-SGmCh) is reported as “synergistic effect”.

With `O=C(/C=C/c1cccc(S(=O)(=O)Nc2ccccc2)c1)NO` [belinostat] the “chymotrypsin-like activity of the proteasome” value [1] was “no proteasomal inhibition”, the “R77C-α-SGmCh membrane rescue” value (R77C-α-SGmCh; 10 μM alone) was “low effect” and the “R77C-α-SGmCh membrane rescue” value (R77C-α-SGmCh; [4]) was “diffuse α-SG staining suggesting a synergy with BTZ”. The EC50 (R77C-α-SGmCh; [5]) was 0.3 µM and the EC50 (R77C-α-SGmCh; treatment alone) was 5.3 µM.

In the case of `CC(C)C[C@H](NC(=O)[C@H](Cc1ccccc1)NC(=O)c1cnccn1)B(O)O` [bortezomib], the “inhibition of the proteasome activity” value ([1]; 5 nM BTZ) is reported as “limited inhibition”, the R77C-α-SG degradation rescue (R77C-α-SGmCh; 5 nM BTZ) is reported as “rescuing partially” and the “R77C-α-SG localization in the plasma membrane” value (R77C-α-SGmCh; 30 nM, 24 hours, non-permeabilized condition) is reported as “rescue of R77C-α-SG localization in the plasma membrane”.

In the case of `CC(C)C[C@@H](C=O)NC(=O)[C@H](CC(C)C)NC(=O)[C@H](CC(C)C)NC(=O)OCc1ccccc1` [MG132] (Cbz-Leu-Leu-Leu-aldehyde), the “effect on R77C-α-SGmCh mutant protein rescue in combination with givinostat” value (R77C-α-SGmCh) is reported as “synergistic effect”.

With `O=C(CCCCCCC(=O)Nc1ccc([C@H]2O[C@@H](CSc3nc(-c4ccccc4)c(-c4ccccc4)o3)C[C@@H](c3ccc(CO)cc3)O2)cc1)NO` [tubacin, Tubacin] the “acetylation of α-tubulin (Western blot)” value ([2]; 10 μM combined with 5 nM BTZ) was “acetylation of a-tubulin”, the “α-SG protein levels (Western blot)” value ([2]; 10 μM combined with 5 nM BTZ) was “increased α-SG protein levels” and the “ubiquitinated proteins (Western blot)” value [2] was “synergistic accumulation of ubiquitinated proteins”. For the same compound, the cell toxicity [3] was “in the same range than givinostat”, the “membrane R77C-α-SGmCh expression” value (R77C-α-SGmCh; in combination with 5 nM BTZ) was “synergistic effect” and the “membrane R77C-α-SGmCh expression” value (R77C-α-SGmCh; increasing concentrations, alone) was “induced a dose-response curve”.
